These results are taken from article PMC7048316, “Yeast filamentation signaling is connected to a specific substrate translocation mechanism of the Mep2 transceptor” (PLoS Genetics, 2020).

Broadly, the Km is the substrate concentration at which the rate is half of its maximum.

In one data set the target is T1, Mep2 (ScMep2) (Saccharomyces cerevisiae, UniProt P41948).
T1 construct: untagged full-length Mep2 in pOO2, cRNA-injected Xenopus oocytes; family adopts a trimeric fold
The format is cell-based. Conditions: 3 mM ammonium; pH 5.5; labelled compound.

Substrate in data set [1]: N
Nature of the data set: cells, lysate or membranes. Conditions: -100 mV (voltage-dependent), pH 5.5, NH4Cl.

T1 sequence (P41948 whole entry): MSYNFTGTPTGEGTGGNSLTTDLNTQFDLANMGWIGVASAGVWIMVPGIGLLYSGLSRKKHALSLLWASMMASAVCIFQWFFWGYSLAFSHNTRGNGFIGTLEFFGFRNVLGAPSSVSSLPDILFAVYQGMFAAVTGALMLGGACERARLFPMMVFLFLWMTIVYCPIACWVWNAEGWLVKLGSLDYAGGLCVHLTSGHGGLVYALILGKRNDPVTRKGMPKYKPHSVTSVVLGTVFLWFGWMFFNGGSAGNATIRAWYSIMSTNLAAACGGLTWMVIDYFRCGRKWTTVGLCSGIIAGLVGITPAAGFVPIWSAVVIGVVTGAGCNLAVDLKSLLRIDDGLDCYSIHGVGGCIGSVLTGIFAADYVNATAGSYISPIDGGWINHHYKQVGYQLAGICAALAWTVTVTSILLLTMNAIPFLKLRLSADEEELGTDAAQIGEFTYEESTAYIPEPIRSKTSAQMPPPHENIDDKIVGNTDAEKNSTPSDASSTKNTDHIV

As for `N` [ammonium], the “15N-ammonium uptake into Xenopus oocytes, isotope ratio mass spectrometry” value on Mep2 (ScMep2) is “Mep2 and its Mep2^S457D variant were functional in oocytes, enabling substrate transport”.

B1: Mep1 (ScMep1) (Saccharomyces cerevisiae S288C) (protein)
chain: MESRTTGPLTTETYDGPTVAFMILGAALVFFMVPGLGFLYSGLARRKSALALIWVVLMATLVGILQWYFWGYSLAFSKSAPNNKFIGNLDSFGFRNVYGKKFDEDAYPELAYATFQMMFSCVNLSIIAGATAERGRLLPHMVFLFILATIGYCPVTYWIWSPGGWAYQWGVLDWAGGGNIEILSAVSGFVYSWFLGKRNEKLLINFRPHNVSLVTLGTSILWFGWLLFNSASSLSPNLRSVYAFMNTCLSAITGGMTWCLLDYRSEKKWSTVGLCSGIISGLVAATPSSGCITLYGSLIQGIVAGVVCNFATKLKYYAKVDDAMDILAEHGVAGVIGLIFNALFGADWVIGMDGTTEHEGGWVTHNYKQMYKQIAYIAASIGYTAAVTAIICFVLGYIPGMRLRISEEAEEAGMDEDQIGEFAYDYVEVRRDYYLWGVDEDSQRSDVNHRVNNAHLAAERSSSGTNSSSDGNGEMIQSEKILPIHQEDPANR
As to B1, the Km in data set [1] worked out at 258 µM.
